Data from paper PMC10066365, “Nemacol is a small molecule inhibitor of C. elegans vesicular acetylcholine transporter with anthelmintic potential” (Nature Communications, 2023).
Values joined by “and” are separate entries in the source; they are usually repeats but may differ in a detail not shown here. Identical values can stand only once. Like-named read-outs stand apart in the source and are kept apart here.

What was measured:
C. elegans = C. elegans motor phenotype scoring on solid media (Punc/jerky-unc, coiled, paralyzed), wild-type young adults; format: in vivo, Caenorhabditis elegans; settings: for atypical locomotion (number of animals) / coiled (number of animals) / no phene (number of animals) / paralyzed (number of animals) / any phene: mean % fraction of young adults exhibiting any phenotype (coiled, jerky-Unc or paralyzed) / any phene, mean % fraction of young adults exhibiting any phenotype (coiled, jerky-Unc or paralyzed) / any phene (mean % fraction of young adults exhibiting any phenotype: coiled, jerky-Unc or paralyzed): one hour; for atypical locomotion (number of animals) / coiled (number of animals) / no phene (number of animals) / paralyzed (number of animals): young adults, 20 animals per trial; for any phene: mean % fraction of young adults exhibiting any phenotype (coiled, jerky-Unc or paralyzed) / any phene, mean % fraction of young adults exhibiting any phenotype (coiled, jerky-Unc or paralyzed) / any phene (mean % fraction of young adults exhibiting any phenotype: coiled, jerky-Unc or paralyzed): mean of three biological replicates; for EC50: Caenorhabditis elegans, read-out: C. elegans - motor disruption EC50
[1] = system: Dirofilaria immitis microfilariae; test: Dirofilaria immitis microfilariae immobility assay (DiroImager, 72 h); settings: for % effect (motility), DIROIM MF: Dirofilaria immitis microfilariae
Experimental: We conducted experiments with the Missouri isolate of Dirofilaria immitis in two labs. In the first set of experiments, shown as part of Fig. 3c, D. immitis microfilariae and larval stage 3 (L3) worms were assayed in the laboratories of Bayer Animal Health GmbH (Monheim, Germany). For microfilariae immobility assays, approximately 250 freshly purified microfilariae were cultured in single wells of a 96-well microtiter plate containing supplemented RPMI 1640 medium[68],[69]. […] Microfilariae exposed to medium substituted with 1% DMSO were used as negative controls. Motility of microfilariae was evaluated after 72 h of drug exposure using an image-based approach—DiroImager, developed by Bayer Technology Services. As described in detail in refs. [68],[69], the DiroImager is an automated high-throughput platform that allows for high-resolution optical imaging of an entire 96-well microtiter plate.

[2] = system: Dirofilaria immitis L3/L4; test: Dirofilaria immitis L3/L4 motility assay (DiroImager, 72 h); settings: Dirofilaria immitis L4
Pristionchus pacificus = Pristionchus pacificus motor disruption dose-response on solid media, 1 h; settings: for mean % any phene (coiled, jerky-Unc or paralyzed): Pristionchus pacificus young adults, mean of three biological replicates; for EC50: Pristionchus pacificus, 1 h, read-out: P. pacificus motor disruption EC50
[3] = 3.75uM, single technical replicate
[4] = 15uM, single technical replicate
[5] = 60uM, single technical replicate
[6] = any motor phenotype after 1 h on solid media, ± 95% CI
[7] = conc 3.75, observed at one hour
[8] = 3.75uM, single replicate counts
[9] = 3.75uM, third c14 line of each analog
[10] = 15uM, second c14 line of each analog
[11] = 60uM, first c14 line of each analog

| Compound | EC50 (C. elegans; [6]) | % effect (motility), DIROIM MF ([1]; 0.016 µM) | % effect (motility), DIROIM MF ([1]; 0.08 µM) | % effect (motility), DIROIM MF ([1]; 0.4 µM) | % effect (motility), DIROIM MF ([1]; 2 µM) | % effect (motility), DIROIM MF ([1]; 10 µM) | % effect (motility), DIROIM L4 ([2]; 10 µM) | % effect (motility), DIROIM L4 ([2]; 50 µM) | mean % any phene (coiled, jerky-Unc or paralyzed) (Pristionchus pacificus; [7]) | mean % any phene (coiled, jerky-Unc or paralyzed) (Pristionchus pacificus; conc 15, observed at one hour) | mean % any phene (coiled, jerky-Unc or paralyzed) (Pristionchus pacificus; conc 60, observed at one hour) | EC50 (Pristionchus pacificus) | % effect (motility), DIROIM L4 ([2]; 2 µM) | any phene (mean % fraction of young adults exhibiting any phenotype: coiled, jerky-Unc or paralyzed) (C. elegans; [9]) | any phene (mean % fraction of young adults exhibiting any phenotype: coiled, jerky-Unc or paralyzed) (C. elegans; [10]) | any phene (mean % fraction of young adults exhibiting any phenotype: coiled, jerky-Unc or paralyzed) (C. elegans; [11]) | also measured |
| --- | --- | --- | --- | --- | --- | --- | --- | --- | --- | --- | --- | --- | --- | --- | --- | --- | --- |
| FC(F)(F)c1cccc(N2CCN(C3CCCCCCC3)CC2)c1 [Nemacol-55] | 7.9 ± 3.5 µM | 0% | 0% | 0% | 0% | 0% | 15% | 35% | 5% | 8.333% | 59.1667% | 49.2 ± 6.2 µM | – | – | – | – | atypical locomotion (number of animals) (C. elegans; [3]): 5 and 6 and 2 and 3 and 8; coiled (number of animals) (C. elegans; [3]): 0; no phene (number of animals) (C. elegans; [3]): 15 and 14 and 18 and 17 and 12; paralyzed (number of animals) (C. elegans; [3]): 0; any phene: mean % fraction of young adults exhibiting any phenotype (coiled, jerky-Unc or paralyzed) (C. elegans; 3.75uM): 26.6667%; atypical locomotion (number of animals) (C. elegans; [4]): 11 and 15 and 8 and 9 and 19 and 18; coiled (number of animals) (C. elegans; [4]): 1 and 0 and 2; no phene (number of animals) (C. elegans; [4]): 8 and 4 and 12 and 11 and 1 and 0; paralyzed (number of animals) (C. elegans; [4]): 0 and 1; any phene: mean % fraction of young adults exhibiting any phenotype (coiled, jerky-Unc or paralyzed) (C. elegans; 15uM): 70%; atypical locomotion (number of animals) (C. elegans; [5]): 18 and 17 and 16 and 11 and 15; coiled (number of animals) (C. elegans; [5]): 0 and 2 and 5 and 4 and 3; no phene (number of animals) (C. elegans; [5]): 0 and 2; paralyzed (number of animals) (C. elegans; [5]): 2 and 1 and 0 and 4; any phene: mean % fraction of young adults exhibiting any phenotype (coiled, jerky-Unc or paralyzed) (C. elegans; 60uM): 96.6667% |
| Clc1ccc(N2CCN(CC3CCCCC3)CC2)cc1 [Nemacol-10] | 45.7 ± 15.7 µM | 0% | 0% | 0% | 0% | 0% | 0% | 25% | 0.8333% | 3.333% | 6.667% | > 60 µM | 0% | – | – | – | any phene, mean % fraction of young adults exhibiting any phenotype (coiled, jerky-Unc or paralyzed) (C. elegans; 3.75uM): 0%; atypical locomotion (number of animals) (C. elegans; [8]): 0; coiled (number of animals) (C. elegans; [8]): 0; no phene (number of animals) (C. elegans; [8]): 20; paralyzed (number of animals) (C. elegans; [8]): 0; any phene, mean % fraction of young adults exhibiting any phenotype (coiled, jerky-Unc or paralyzed) (C. elegans; 15uM): 27.5%; atypical locomotion (number of animals) (C. elegans; 15uM, single replicate counts): 5 and 4 and 3 and 1 and 2; coiled (number of animals) (C. elegans; 15uM, single replicate counts): 1 and 2 and 0 and 3; no phene (number of animals) (C. elegans; 15uM, single replicate counts): 14 and 13 and 18; paralyzed (number of animals) (C. elegans; 15uM, single replicate counts): 0 and 1 and 3; any phene, mean % fraction of young adults exhibiting any phenotype (coiled, jerky-Unc or paralyzed) (C. elegans; 60uM): 55.6944%; atypical locomotion (number of animals) (C. elegans; 60uM, single replicate counts): 8 and 14 and 12 and 11 and 6 and 7; coiled (number of animals) (C. elegans; 60uM, single replicate counts): 1 and 0 and 2; no phene (number of animals) (C. elegans; 60uM, single replicate counts): 11 and 4 and 7 and 8 and 12 and 13; paralyzed (number of animals) (C. elegans; 60uM, single replicate counts): 4 and 2 and 0 |
| N#Cc1ccc(N2CCN(CC3CCCCC3)CC2)cc1 [Nemacol-24, 4-(4-(cyclohexylmethyl)piperazin-1-yl)benzonitrile] | 16.3 ± 10.5 µM | 0% | 0% | 0% | 0% | 0% | 25% | 45% | – | – | – | – | – | 8.333% | 45.8333% | 91.6667% | – |
| Cc1cccc(CN2CCN(c3ccc([N+](=O)[O-])cc3)CC2)c1 [Nemacol-40] | – | 0% | 0% | 0% | 0% | 40% | 10% | 100% | 5% | 4.167% | 11.9444% | > 60 µM | 0% | 5% | 14.1667% | 37.5% | EC50 (C. elegans; 1 h): > 60 µM; EC50 ([1]; Dirofilaria immitis, 72 h, read-out: Dirofilaria immitis filariae EC50): 10.7 µM |
